Reference: patent US12435061B2 (priority 2020, dated 2025)
Like-named read-outs stand apart in the source and are kept apart here.

Target: hTRPV3 (Homo sapiens (Human), UniProt Q8NET8)
Test: Whole-cell patch clamp, hTRPV3 Phase 1 / Phase 2 currents
Assay type: cell-based
Summary of the method: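 Whole-cell recordings on induced TRPV3 cells replated on coverslips, held at −40 mV with 400 ms ramps from −120 to +100 mV every 5 s; currents read at −80 and +80 mV. Ringer's external solution; current activated by heating to ≥28 °C or 20 μM 2-APB.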

[1] = Phase 1 current, human TRPV3, read-out: hTRPV3 (nM) Phase 1
[2] = Phase 1 current, inward, whole-cell patch clamp, read-out: hTRPV3 Patch P1 Inwd
[3] = Phase 2 current, human TRPV3, read-out: hTRPV3 (nM) Phase 2
[4] = Phase 2 current, inward, whole-cell patch clamp, read-out: hTRPV3 Patch P2 Inwd

hTRPV3, sequence (Q8NET8 whole entry): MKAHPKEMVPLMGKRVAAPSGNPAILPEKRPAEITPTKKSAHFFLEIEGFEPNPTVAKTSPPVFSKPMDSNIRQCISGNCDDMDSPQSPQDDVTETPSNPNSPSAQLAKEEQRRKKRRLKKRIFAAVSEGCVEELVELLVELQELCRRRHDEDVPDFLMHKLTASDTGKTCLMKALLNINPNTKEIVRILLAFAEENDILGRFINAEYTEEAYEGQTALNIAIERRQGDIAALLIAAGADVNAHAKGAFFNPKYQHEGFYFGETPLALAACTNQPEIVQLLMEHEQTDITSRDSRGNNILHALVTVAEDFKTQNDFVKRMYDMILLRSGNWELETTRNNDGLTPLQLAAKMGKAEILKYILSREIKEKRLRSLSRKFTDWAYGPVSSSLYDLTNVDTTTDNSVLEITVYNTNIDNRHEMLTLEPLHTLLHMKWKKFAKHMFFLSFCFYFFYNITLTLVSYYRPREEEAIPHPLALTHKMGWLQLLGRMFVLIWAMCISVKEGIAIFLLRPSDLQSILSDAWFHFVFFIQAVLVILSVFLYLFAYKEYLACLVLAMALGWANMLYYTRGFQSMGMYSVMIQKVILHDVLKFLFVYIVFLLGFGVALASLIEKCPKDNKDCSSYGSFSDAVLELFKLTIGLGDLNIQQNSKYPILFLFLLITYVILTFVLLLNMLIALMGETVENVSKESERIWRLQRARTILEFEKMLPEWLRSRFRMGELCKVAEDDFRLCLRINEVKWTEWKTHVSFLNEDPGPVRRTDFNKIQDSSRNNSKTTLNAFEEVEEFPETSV

Row | SMILES | IC50 [1] [nM] | IC50 [2] [nM] | IC50 [3] [nM] | IC50 [4] [nM]
1 | O=C(c1ncccc1Cl)N1CCC(c2ccc(C(O)c3ccc(F)cc3)cc2CO)C1 (centres unmarked) [Compound 2-4, (3-chloropyridin-2-yl)(3-(4-((4-fluorophenyl)(hydroxy)methyl)-2-(hydroxymethyl)phenyl)pyrrolidin-1-yl)methanone] | > 3200 | > 1000 |  | 
2 | O=C(c1ncccc1Cl)N1CCC(c2ccc(C(O)c3ccccc3F)cc2CO)C1 (centres unmarked) [Compound 2-5, (3-chloropyridin-2-yl)(3-(4-((2-fluorophenyl)(hydroxy)methyl)-2-(hydroxymethyl)phenyl)pyrrolidin-1-yl)methanone] | > 3200 | > 1000 |  | 
3 | Cc1ccc(C(O)c2ccc(C3CCN(C(=O)c4ncccc4Cl)C3)c(CO)c2)cc1 (centres unmarked) [Compound 2-6, (3-chloropyridin-2-yl)(3-(4-(hydroxy(p-tolyl)methyl)-2-(hydroxymethyl)phenyl)pyrrolidin-1-yl)methanone] | > 3200 | > 1000 |  | 
4 | Cc1ccc(C(=O)c2ccc(C3CCN(C(=O)c4ncccc4Cl)C3)c(CO)c2)cc1 (centres unmarked) [Compound 2-7] | > 3200 | > 1000 |  | 
5 | Cc1cccc(C(=O)c2ccc(C3CCN(C(=O)c4ncccc4Cl)C3)c(CO)c2)c1 (centres unmarked) [Compound 2-9, (4-(1-(3-chloropicolinoyl)pyrrolidin-3-yl)-3-(hydroxymethyl)phenyl)(m-tolyl)methanone] | > 3200 | > 1000 |  | 
6 | O=C(c1ccc(F)cc1)c1ccc(C2CCN(C(=O)c3ncccc3Cl)C2)c(CO)c1 (centres unmarked) [Compound 2-10, (4-(1-(3-chloropicolinoyl)pyrrolidin-3-yl)-3-(hydroxymethyl)phenyl)(4-fluorophenyl)methanone] | > 3200 | > 1000 |  | 
7 | O=C(c1ncccc1Cl)N1CCC(c2ccc(C(O)c3ccccc3Cl)cc2CO)C1 (centres unmarked) [Compound 2-11, (3-(4-((2-chlorophenyl)(hydroxy)methyl)-2-(hydroxymethyl)phenyl)pyrrolidin-1-yl)(3-chloropyridin-2-yl)methanone] | > 3200 | > 1000 |  | 
8 | CC(C)c1ccccc1Oc1ccc(C2CCN(C(=O)c3ccccn3)C2)c(CO)c1 (centres unmarked) [Compound 2-13, (3-(2-(hydroxymethyl)-4-(2-isopropylphenoxy)phenyl)pyrrolidin-1-yl)(pyridin-2-yl)methanone] | 193 | 100 to 1000 |  | 
9 | O=C(c1ccc(C2CCN(C(=O)c3ncccc3Cl)C2)c(CO)c1)c1ccccc1Cl (centres unmarked) [Compound 2-14, (3-(4-(2-chlorobenzoyl)-2-(hydroxymethyl)phenyl)pyrrolidin-1-yl)(3-chloropyridin-2-yl)methanone] | > 3200 | > 1000 |  | 
10 | CCc1ccccc1C(=O)c1ccc(C2CCN(C(=O)c3ncccc3Cl)C2)c(CO)c1 (centres unmarked) [Compound 2-15, (4-(1-(3-chloropicolinoyl)pyrrolidin-3-yl)-3-(hydroxymethyl)phenyl)(2-ethylphenyl)methanone] | > 3200 | > 1000 |  | 
11 | Cc1cccc(C(=O)N2CCC(c3ccc(Oc4ccccc4C(C)C)cc3CO)C2)n1 (centres unmarked) [Compound 2-19, (3-(2-(hydroxymethyl)-4-(2-isopropylphenoxy)phenyl)pyrrolidin-1-yl)(6-methylpyridin-2-yl)methanone] | 191 | 10 to 100 |  | 
12 | CC(C)c1ccccc1Oc1ccc(C2CCN(C(=O)c3ccc(C(F)(F)F)cn3)C2)c(CO)c1 (centres unmarked) [Compound 2-21, (3-(2-(hydroxymethyl)-4-(2-isopropylphenoxy)phenyl)pyrrolidin-1-yl)(5-(trifluoromethyl)pyridin-2-yl)methanone] | 97.1 | 10 to 100 |  | 
13 | COC(=O)c1cc(-c2ccccc2C(C)C)ccc1C1CCN(C(=O)c2ccc(F)cn2)C1 (centres unmarked) [Compound 2-23] | 886 | 100 to 1000 |  | 
14 | CCc1cncnc1Oc1ccc(C2CCN(C(=O)c3ccc(F)cn3)C2)c(CO)c1 (centres unmarked) [Compound 2-24, (3-(4-(5-ethylpyrimidin-4-yloxy)-2-(hydroxymethyl)phenyl)pyrrolidin-1-yl)(5-fluoropyridin-2-yl)methanone] | > 3200 | > 1000 |  | 
15 | CC(C)c1ccccc1Oc1ccc(C2CCN(C(=O)c3ncccc3Cl)C2)c(C(=O)O)c1 (centres unmarked) [Compound 2-25, 2-(1-(3-chloropicolinoyl)pyrrolidin-3-yl)-5-(2-isopropylphenoxy)benzoic acid] | > 3200 | > 1000 |  | 
16 | CC(C)c1ccccc1Oc1ccc(C2CCN(C(=O)c3ccccn3)C2)c(C(N)=O)c1 (centres unmarked) [Compound 2-31, 5-(2-isopropylphenoxy)-2-(1-picolinoylpyrrolidin-3-yl)benzamide] | 1370 | > 1000 |  | 
17 | CCc1ccccc1Oc1ccc(C2CCN(C(=O)c3ncccc3Cl)C2)c(C(N)=O)c1 (centres unmarked) [Compound 2-37, 2-(1-(3-chloropicolinoyl)pyrrolidin-3-yl)-5-(2-ethylphenoxy)benzamide] | ~2190 | > 1000 |  | 
18 | CCc1ccccc1Oc1ccc(C2CCN(C(=O)c3ccccn3)C2)c(C(N)=O)c1 (centres unmarked) [Compound 2-38, 5-(2-ethylphenoxy)-2-(1-picolinoylpyrrolidin-3-yl)benzamide] | 2820 | > 1000 |  | 

Row | SMILES | IC50 [1] [nM] | IC50 [2] [nM] | IC50 [3] [nM] | IC50 [4] [nM]
19 | CCc1ccccc1Oc1ccc(C2CCN(C(=O)c3ccc(Cl)cn3)C2)c(C(N)=O)c1 (centres unmarked) [Compound 2-39, 2-(1-(5-chloropicolinoyl)pyrrolidin-3-yl)-5-(2-ethylphenoxy)benzamide] | 681 | 100 to 1000 |  | 
20 | CCc1ccccc1Oc1ccc(C2CCN(C(=O)c3cccc(C)n3)C2)c(C(N)=O)c1 (centres unmarked) [Compound 2-40, 5-(2-ethylphenoxy)-2-(1-(6-methylpicolinoyl)pyrrolidin-3-yl)benzamide] | 4900 | > 1000 |  | 
21 | CC(C)c1ccccc1-c1ccc(C2CCN(C(=O)c3ncccc3Cl)C2)c(C(N)=O)c1 (centres unmarked) [Compound 2-41] | 575 | 100 to 1000 |  | 
22 | CCc1cccnc1Oc1ccc(C2CCN(C(=O)c3ccc(F)cn3)C2)c(CO)c1 (centres unmarked) [Compound 2-44, (3-(4-(3-ethylpyridin-2-yloxy)-2-(hydroxymethyl)phenyl)pyrrolidin-1-yl)(5-fluoropyridin-2-yl)methanone] | > 3200 | > 1000 |  | 
23 | CC(C)c1ccccc1-c1ccc(C2CCN(C(=O)c3ccccn3)C2)c(C(N)=O)c1 (centres unmarked) [Compound 2-45] | 929 | 100 to 1000 |  | 
24 | CC(C)c1ccccc1Oc1ccc(C2CCN(C(=O)c3ncccc3F)C2)c(C(N)=O)c1 (centres unmarked) [Compound 2-46, 2-(1-(3-fluoropicolinoyl)pyrrolidin-3-yl)-5-(2-isopropylphenoxy)benzamide] | ~2250 | > 1000 |  | 
25 | CCc1ccccc1-c1ccc(C2CCN(C(=O)c3ncccc3F)C2)c(CO)c1 (centres unmarked) [Compound 2-54, (3-(2′-ethyl-3-(hydroxymethyl)biphenyl-4-yl)pyrrolidin-1-yl)(3-fluoropyridin-2-yl) methanone] | 91.3 | 10 to 100 |  | 
26 | O=C(c1ncccc1Cl)N1CCC(c2ccc(-c3ccccc3C3CC3)cc2CO)C1 (centres unmarked) [Compound 2-55, (3-chloropyridin-2-yl)(3-(2′-cyclopropyl-3-(hydroxymethyl)biphenyl-4-yl)pyrrolidin-1-yl)methanone] | 88.4 | 10 to 100 |  | 
27 | CCOc1ccccc1-c1ccc(C2CCN(C(=O)c3ccc(F)cn3)C2)c(CO)c1 (centres unmarked) [Compound 2-59, (3-(2′-ethoxy-3-(hydroxymethyl)biphenyl-4-yl)pyrrolidin-1-yl)(5-fluoropyridin-2-yl)methanone] | 62.1 | 10 to 100 |  | 
28 | O=C(c1cc(Cl)ccn1)N1CCC(c2ccc(-c3ccccc3C3CC3)cc2CO)C1 (centres unmarked) [Compound 2-60, (4-chloropyridin-2-yl)(3-(2′-cyclopropyl-3-(hydroxymethyl)biphenyl-4-yl)pyrrolidin-1-yl)methanone] | 26.5 | 10 to 100 |  | 
29 | COCc1ccccc1-c1ccc(C2CCN(C(=O)c3ccc(F)cn3)C2)c(CO)c1 (centres unmarked) [Compound 2-61, (5-fluoropyridin-2-yl)(3-(3-(hydroxymethyl)-2′-(methoxymethyl)biphenyl-4-yl)pyrrolidin-1-yl)methanone] | 153 | 100 to 1000 |  | 
30 | CCc1ccccc1-c1ccc(C2CCN(C(=O)c3cc(OC)ccn3)C2)c(CO)c1 (centres unmarked) [Compound 2-63, (3-(2′-ethyl-3-(hydroxymethyl)biphenyl-4-yl)pyrrolidin-1-yl)(4-methoxypyridin-2-yl)methanone] | 235 | 100 to 1000 |  | 
31 | COCc1ccccc1-c1ccc(C2CCN(C(=O)c3ccc(Cl)cn3)C2)c(CO)c1 (centres unmarked) [Compound 2-65, (5-chloropyridin-2-yl)(3-(3-(hydroxymethyl)-2′-(methoxymethyl)biphenyl-4-yl)pyrrolidin-1-yl)methanone] | 97.7 | 10 to 100 |  | 
32 | CCc1nccnc1-c1ccc(C2CCN(C(=O)c3ccc(F)cn3)C2)c(CO)c1 (centres unmarked) [Compound 2-68, (3-(4-(3-ethylpyrazin-2-yl)-2-(hydroxymethyl)phenyl)pyrrolidin-1-yl)(5-fluoropyridin-2-yl)methanone] | > 3200 | > 1000 |  | 
33 | CC(O)c1cc(F)ccc1-c1ccc(C2CCN(C(=O)c3ccc(F)cn3)C2)c(CO)c1 (centres unmarked) [Compound 2-70, (3-(4′-fluoro-2′-(1-hydroxyethyl)-3-(hydroxymethyl)biphenyl-4-yl)pyrrolidin-1-yl)(5-fluoropyridin-2-yl)methanone] | 2330 | > 1000 |  | 
34 | CC(O)c1cc(F)ccc1-c1ccc(C2CCN(C(=O)c3ccc(Cl)cn3)C2)c(CO)c1 (centres unmarked) [Compound 2-71, (5-chloropyridin-2-yl)(3-(4′-fluoro-2′-(1-hydroxyethyl)-3-(hydroxymethyl)biphenyl-4-yl)pyrrolidin-1-yl)methanone] | 860 | 100 to 1000 | 572 | 100 to 1000
35 | O=C(c1ncccc1F)N1CCC(c2ccc(-c3ccccc3C3CC3)cc2CO)C1 (centres unmarked) [Compound 2-74] | 90.5 | 10 to 100 | 54.6 | 10 to 100
